Experimental data reported in patent US20240254109A1, “SALT CONTAINING PIPERAZINE POLYCYCLIC DERIVATIVE, CRYSTAL FORM THEREOF, PREPARATION METHOD THEREFOR, AND USE THEREOF” (Shanghai Hansoh Biomedical Co., Ltd., priority 2021, published 2024).

How the values were obtained:
Type in all cases: physicochemical
[1] = Hygroscopicity study of salt (DVS)
Text: 2.1.4 Hygroscopicity Study of Salt
The hygroscopicity of a drug refers to the characteristics of the drug's ability or degree of water absorption at a certain temperature and humidity. […] (DVS) was used to characterize the ability of drugs to absorb water under different humidity conditions. The instrument parameters are detailed in the table below.

[2] = Stability study of salt (5 days and 10 days, HPLC related substances)
Method: 2.1.3 Stability Study of Salt
Hydrochloride and p-toluenesulfonate of N-(trans-3-(2-(4-(2,3-dichlorophenyl)piperazin-1-yl)ethyl)cyclobutyl)oxazole-2-carboxamide were weighed about 1 mg, respectively, and then placed under light (5000 lux), high temperature (60° C.), high humidity (92.50 RH), high temperature and high humidity (50° C. and 75% RH) for 5 days and 10 days, then a diluent DMSO was added to prepare a solution with salt concentration of about 1 mg/mL.
The chromatographic peak area normalization method was used to calculate the changes of related substances.

[3] = Solubility of hydrochloride in different media; conditions: 37° C.
Method: 2.1.5 Solubility of Hydrochloride in Different Media
1.0 mg of compound was weighed into a 2 mL glass bottle, then 1 mL of dissolving medium was added respectively. The glass bottle was shaken overnight on an electrothermal constant temperature shaking tank, and the temperature was set to 37° C. After 24 hours, the sample solution was filtered with a […] mixed water fiber filter membrane, and the subsequent filtrate was taken to test its content by HPLC. HPLC detection methods are described in “Stability Study Conditions”.

[4] = Crystal form stability study of hydrochloride for 30 days
Method: 9. Crystal Form Stability Study of Hydrochloride for 30 Days
The 30 days stability of hydrochloride of N-(trans-3-(2-(4-(2,3-dichlorophenyl)piperazin-1-yl)ethyl)cyclobutyl)oxazole-2-carboxamide under four conditions of 60° C. (closed), 40° C. & RH 75% (open), 25° C./RH 92.5% (open) and light (5000±500 Lux) was detected, which provided scientific basis for the production, packaging, storage and transportation conditions of drugs.
The diluent 80% methanol solution was added to prepare a solution containing about 0.5 mg/mL hydrochloride. The mixture was sonicated for 30 min to produce a clear solution. 1 mL of the solution was filtered and measured by HPLC. See “2.3.4” for the HPLC analysis method. The content of related substances was calculated according to the peak area normalization method, and the results are shown in Table 32 below.

[5] = GWGS-5 d (high temperature and high humidity)
[6] = GWGS-10 d (high temperature and high humidity)
[7] = high temperature, light, high humidity, high temperature and high humidity, 5 and 10 days
[8] = WS-30 d (high temperature and high humidity)

For Cl.O=C(N[C@H]1C[C@H](CCN2CCN(c3cccc(Cl)c3Cl)CC2)C1)c1ncco1 [N-(trans-3-(2-(4-(2,3-dichlorophenyl)piperazin-1-yl)ethyl)cyclobutyl)oxazole-2-carboxamide hydrochloride], the “hygroscopicity (DVS)” value [1] was “slightly hygroscopic”, the “RRT 1.000 Area %” value ([2]; 0 d) was 99.619% and the “RRT 1.050 Area %” value ([2]; 0 d) was 0.153%. For the same compound, the “RRT 1.200 Area %” value ([2]; 0 d) was 0.163%, the “RRT 1.550 Area %” value ([2]; 0 d) was 0.065% and the “total Area % (related substances)” value ([2]; 0 d) was 0.381%. The “RRT 0.220 Area %” value ([2]; GS-5 d (high humidity)) was 0.055%, the “RRT 1.000 Area %” value ([2]; GS-5 d (high humidity)) was 99.556% and the “RRT 1.050 Area %” value ([2]; GS-5 d (high humidity)) was 0.160%. The “RRT 1.200 Area %” value ([2]; GS-5 d (high humidity)) was 0.161%, the “RRT 1.550 Area %” value ([2]; GS-5 d (high humidity)) was 0.069% and the “total Area % (related substances)” value ([2]; GS-5 d (high humidity)) was 0.444%. The “RRT 1.000 Area %” value ([2]; GS-10 d (high humidity)) was 99.619%, the “RRT 1.050 Area %” value ([2]; GS-10 d (high humidity)) was 0.153% and the “RRT 1.200 Area %” value ([2]; GS-10 d (high humidity)) was 0.163%. The “RRT 1.550 Area %” value ([2]; GS-10 d (high humidity)) was 0.065%, the “total Area % (related substances)” value ([2]; GS-10 d (high humidity)) was 0.381% and the “RRT 1.000 Area %” value ([2]; GW-5 d (high temperature)) was 99.604%. The “RRT 1.050 Area %” value ([2]; GW-5 d (high temperature)) was 0.164%, the “RRT 1.200 Area %” value ([2]; GW-5 d (high temperature)) was 0.163% and the “RRT 1.550 Area %” value ([2]; GW-5 d (high temperature)) was 0.068%. For the same compound, the “total Area % (related substances)” value ([2]; GW-5 d (high temperature)) was 0.396%, the “RRT 1.000 Area %” value ([2]; GW-10 d (high temperature)) was 99.590% and the “RRT 1.050 Area %” value ([2]; GW-10 d (high temperature)) was 0.170%. For the same compound, the “RRT 1.200 Area %” value ([2]; GW-10 d (high temperature)) was 0.163%, the “RRT 1.550 Area %” value ([2]; GW-10 d (high temperature)) was 0.077% and the “total Area % (related substances)” value ([2]; GW-10 d (high temperature)) was 0.410%. For the same compound, the “RRT 1.000 Area %” value [2, 5] was 99.603%, the “RRT 1.050 Area %” value [2, 5] was 0.144% and the “RRT 1.200 Area %” value [2, 5] was 0.165%. For the same compound, the “RRT 1.550 Area %” value [2, 5] was 0.088%, the “total Area % (related substances)” value [2, 5] was 0.397% and the “RRT 1.000 Area %” value [2, 6] was 99.614%. For the same compound, the “RRT 1.050 Area %” value [2, 6] was 0.157%, the “RRT 1.200 Area %” value [2, 6] was 0.161% and the “RRT 1.550 Area %” value [2, 6] was 0.067%. The “total Area % (related substances)” value [2, 6] was 0.386%, the “RRT 1.000 Area %” value ([2]; GZ-5 d (light)) was 99.617% and the “RRT 1.050 Area %” value ([2]; GZ-5 d (light)) was 0.148%. The “RRT 1.200 Area %” value ([2]; GZ-5 d (light)) was 0.160%, the “RRT 1.550 Area %” value ([2]; GZ-5 d (light)) was 0.075% and the “total Area % (related substances)” value ([2]; GZ-5 d (light)) was 0.383%. For the same compound, the “RRT 1.000 Area %” value ([2]; GZ-10 d (light)) was 99.604%, the “RRT 1.050 Area %” value ([2]; GZ-10 d (light)) was 0.162% and the “RRT 1.200 Area %” value ([2]; GZ-10 d (light)) was 0.158%. For the same compound, the “RRT 1.550 Area %” value ([2]; GZ-10 d (light)) was 0.077%, the “total Area % (related substances)” value ([2]; GZ-10 d (light)) was 0.396% and the growth of impurities [2, 7] was “no significant growth of impurities”. The stability of salt [2, 7] was “good stability”, the “solubility in different pH buffers (dependence)” value ([3]; 24 hours) was “pH-dependent” and the solubility ([3]; acidic conditions) was “better solubility”. For the same compound, the solubility ([3]; neutral or alkaline conditions) was “poor solubility”, the “solubility in water compared with free base” value ([3]; water) was “greatly improved” and the “RRT 1.00 Area %” value ([4]; 0 d) was 99.44%. The “RRT 1.07 Area %” value ([4]; 0 d) was 0.07%, the “RRT 1.93 Area %” value ([4]; 0 d) was 0.42% and the “RRT 2.43 Area %” value ([4]; 0 d) was 0.07%. The “RRT 1.00 Area %” value ([4]; GS-30 d (high humidity)) was 99.43%, the “RRT 1.07 Area %” value ([4]; GS-30 d (high humidity)) was 0.11% and the “RRT 1.93 Area %” value ([4]; GS-30 d (high humidity)) was 0.39%. The “RRT 2.43 Area %” value ([4]; GS-30 d (high humidity)) was 0.07%, the “RRT 1.00 Area %” value ([4]; GW-30 d (high temperature)) was 99.51% and the “RRT 1.07 Area %” value ([4]; GW-30 d (high temperature)) was 0.08%. For the same compound, the “RRT 1.93 Area %” value ([4]; GW-30 d (high temperature)) was 0.41%, the “RRT 1.00 Area %” value ([4]; GZ-30 d (light)) was 99.43% and the “RRT 1.07 Area %” value ([4]; GZ-30 d (light)) was 0.09%. The “RRT 1.93 Area %” value ([4]; GZ-30 d (light)) was 0.41%, the “RRT 2.43 Area %” value ([4]; GZ-30 d (light)) was 0.08% and the “RRT 1.00 Area %” value [4, 8] was 99.46%. For the same compound, the “RRT 1.07 Area %” value [4, 8] was 0.09%, the “RRT 1.93 Area %” value [4, 8] was 0.38% and the “RRT 2.43 Area %” value [4, 8] was 0.07%.
